{
  "source": "patent US11331369B2",
  "about": "“Endoparasitic depsipeptides” (Zoetis Services LLC, priority 2017, dated 2022)",
  "data": [
    {"tested_on": "microfilariae of Dirofilaria immitis", "experiment": "Dirofilaria immitis, Microfilaria (DiMF) In vitro Assay", "assay_type": "cell-based", "conditions": "72 h, read-out: DiMF Minimum Effective Dose (MED), approximately 72 hours incubation, microfilariae assessed for survival or paralysis", "units": {"minimal effective concentration": "µM"}, "values": [
      {"smiles": "CNC(=O)c1cnn(Cc2ccc(C[C@H]3OC(=O)[C@H](CC(C)C)N(C)C(=O)[C@@H](C)OC(=O)[C@H](CC(C)C)N(C)C(=O)[C@@H](Cc4ccc(Cn5cc(C(=O)NC)cn5)cc4)OC(=O)[C@H](CC(C)C)N(C)C(=O)[C@@H](C)OC(=O)[C@H](CC(C)C)N(C)C3=O)cc2)c1", "note": "[Example 1b-53, 1,1′-(((((2R,5S,8R,11 S,14R,17S,20R,23S)-5,11,17,23-tetraisobutyl-4,8,10,16,20,22-hexamethyl-3,6,9,12,15,18,21,24-octaoxo-1,7,13,19-tetraoxa-4,10,16,22-tetraazacyclotetracosane-2,14-diyl)bis(methylene))bis(4,1-phenylene))bis(methylene))bis(N-methyl-1H-pyrazole-4-carboxamide)]", "minimal effective concentration": "0.01 to 0.1"},
      {"smiles": "CC(C)C[C@H]1C(=O)O[C@H](Cc2ccc(Cn3cc(S(=O)(=O)N4CCCC4)cn3)cc2)C(=O)N(C)[C@@H](CC(C)C)C(=O)O[C@H](C)C(=O)N(C)[C@@H](CC(C)C)C(=O)O[C@H](Cc2ccc(Cn3cc(S(=O)(=O)N4CCCC4)cn3)cc2)C(=O)N(C)[C@@H](CC(C)C)C(=O)O[C@H](C)C(=O)N1C", "note": "[Example 1b-54, (3S,6R,9S,12R,15S,18R,21S,24R)-3,9,15,21-tetraisobutyl-4,6,10,16,18,22-hexamethyl-12,24-bis(4-((4-(pyrrolidin-1-ylsulfonyl)-1H-pyrazol-1-yl)methyl)benzyl)-1,7,13,19-tetraoxa-4,10,16,22-tetraazacyclotetracosan-2,5,8,11,14,17,20,23-octaone]", "minimal effective concentration": "0.01 to 0.1"},
      {"smiles": "CC(C)C[C@H]1C(=O)O[C@H](Cc2ccc(Cn3cc(C(F)F)cn3)cc2)C(=O)N(C)[C@@H](CC(C)C)C(=O)O[C@H](C)C(=O)N(C)[C@@H](CC(C)C)C(=O)O[C@H](Cc2ccc(Cn3cc(C(F)F)cn3)cc2)C(=O)N(C)[C@@H](CC(C)C)C(=O)O[C@H](C)C(=O)N1C", "note": "[Example 1b-62, (3S,6R,9S,12R,15S,18R,21S,24R)-6,18-bis(4-((4-(difluoromethyl)-1H-pyrazol-1-yl)methyl)benzyl)-3,9,15,21-tetraisobutyl-4,10,12,16,22,24-hexamethyl-1,7,13,19-tetraoxa-4,10,16,22-tetraazacyclotetracosan-2,5,8,11,14,17,20,23-octaone]", "minimal effective concentration": "0.001 to 0.01"},
      {"smiles": "CC(C)C[C@H]1C(=O)O[C@H](Cc2ccc(Cn3ccc(Br)n3)cc2)C(=O)N(C)[C@@H](CC(C)C)C(=O)O[C@H](C)C(=O)N(C)[C@@H](CC(C)C)C(=O)O[C@H](Cc2ccc(Cn3ccc(Br)n3)cc2)C(=O)N(C)[C@@H](CC(C)C)C(=O)O[C@H](C)C(=O)N1C", "note": "[Example 1b-63, (3S,6R,9S,12R,15S,18R,21S,24R)-6,18-bis(4-((3-bromo-1H-pyrazol-1-yl)methyl)benzyl)-3,9,15,21-tetraisobutyl-4,10,12,16,22,24-hexamethyl-1,7,13,19-tetraoxa-4,10,16,22-tetraazacyclotetracosan-2,5,8,11,14,17,20,23-octaone]", "minimal effective concentration": "0.01 to 0.1"},
      {"smiles": "CC(C)C[C@H]1C(=O)O[C@H](Cc2ccc(Cn3ccc(I)n3)cc2)C(=O)N(C)[C@@H](CC(C)C)C(=O)O[C@H](C)C(=O)N(C)[C@@H](CC(C)C)C(=O)O[C@H](Cc2ccc(Cn3ccc(I)n3)cc2)C(=O)N(C)[C@@H](CC(C)C)C(=O)O[C@H](C)C(=O)N1C", "note": "[Example 1b-64, (3S,6R,9S,12R,15S,18R,21S,24R)-6,18-bis(4-((3-iodo-1H-pyrazol-1-yl)methyl)benzyl)-3,9,15,21-tetraisobutyl-4,10,12,16,22,24-hexamethyl-1,7,13,19-tetraoxa-4,10,16,22-tetraazacyclotetracosan-2,5,8,11,14,17,20,23-octaone]", "minimal effective concentration": "0.01 to 0.1"},
      {"smiles": "CC(C)C[C@H]1C(=O)O[C@H](Cc2ccc(Cn3ccc(C4CC4)n3)cc2)C(=O)N(C)[C@@H](CC(C)C)C(=O)O[C@H](C)C(=O)N(C)[C@@H](CC(C)C)C(=O)O[C@H](Cc2ccc(Cn3ccc(C4CC4)n3)cc2)C(=O)N(C)[C@@H](CC(C)C)C(=O)O[C@H](C)C(=O)N1C", "note": "[Example 1b-67, (3S,6R,9S,12R,15S,18R,21S,24R)-6,18-bis(4-((3-cyclopropyl-1H-pyrazol-1-yl)methyl)benzyl)-3,9,15,21-tetraisobutyl-4,10,12,16,22,24-hexamethyl-1,7,13,19-tetraoxa-4,10,16,22-tetraazacyclotetracosan-2,5,8,11,14,17,20,23-octaone]", "minimal effective concentration": "0.01 to 0.1"},
      {"smiles": "CC(C)C[C@H]1C(=O)O[C@H](Cc2ccc(Cn3cc(-c4ccccn4)cn3)cc2)C(=O)N(C)[C@@H](CC(C)C)C(=O)O[C@H](C)C(=O)N(C)[C@@H](CC(C)C)C(=O)O[C@H](Cc2ccc(Cn3cc(-c4ccccn4)cn3)cc2)C(=O)N(C)[C@@H](CC(C)C)C(=O)O[C@H](C)C(=O)N1C", "note": "[Example 1b-71, (3S,6R,9S,12R,15S,18R,21S,24R)-3,9,15,21-tetraisobutyl-4,6,10,16,18,22-hexamethyl-12,24-bis(4-((4-(pyridin-2-yl)-1H-pyrazol-1-yl)methyl)benzyl)-1,7,13,19-tetraoxa-4,10,16,22-tetraazacyclotetracosan-2,5,8,11,14,17,20,23-octaone]", "minimal effective concentration": "0.01 to 0.1"},
      {"smiles": "CC(C)C[C@H]1C(=O)O[C@H](Cc2ccc(Cn3cc(CCO)cn3)cc2)C(=O)N(C)[C@@H](CC(C)C)C(=O)O[C@H](C)C(=O)N(C)[C@@H](CC(C)C)C(=O)O[C@H](Cc2ccc(Cn3cc(CCO)cn3)cc2)C(=O)N(C)[C@@H](CC(C)C)C(=O)O[C@H](C)C(=O)N1C", "note": "[Example 1b-75, (3S,6R,9S,12R,15S,18R,21S,24R)-6,18-bis(4-((4-(2-hydroxyethyl)-1H-pyrazol-1-yl)methyl)benzyl)-3,9,15,21-tetraisobutyl-4,10,12,16,22,24-hexamethyl-1,7,13,19-tetraoxa-4,10,16,22-tetraazacyclotetracosan-2,5,8,11,14,17,20,23-octaone]", "minimal effective concentration": "0.01 to 0.1"},
      {"smiles": "CC(C)C[C@H]1C(=O)O[C@H](Cc2ccc(Cn3cc(-c4cnccn4)cn3)cc2)C(=O)N(C)[C@@H](CC(C)C)C(=O)O[C@H](C)C(=O)N(C)[C@@H](CC(C)C)C(=O)O[C@H](Cc2ccc(Cn3cc(-c4cnccn4)cn3)cc2)C(=O)N(C)[C@@H](CC(C)C)C(=O)O[C@H](C)C(=O)N1C", "note": "[Example 1b-87, (3S,6R,9S,12R,15S,18R,21S,24R)-3,9,15,21-tetraisobutyl-4,6,10,16,18,22-hexamethyl-12,24-bis(4-((4-(pyrazin-2-yl)-1H-pyrazol-1-yl)methyl)benzyl)-1,7,13,19-tetraoxa-4,10,16,22-tetraazacyclotetracosan-2,5,8,11,14,17,20,23-octaone]", "minimal effective concentration": "0.01 to 0.1"},
      {"smiles": "CC(C)C[C@H]1C(=O)O[C@H](Cc2ccc(Cn3ccc(CO)n3)cc2)C(=O)N(C)[C@@H](CC(C)C)C(=O)O[C@H](C)C(=O)N(C)[C@@H](CC(C)C)C(=O)O[C@H](Cc2ccc(Cn3ccc(CO)n3)cc2)C(=O)N(C)[C@@H](CC(C)C)C(=O)O[C@H](C)C(=O)N1C", "note": "[Example 1b-97, (3S,6R,9S,12R,15S,18R,21S,24R)-6,18-bis(4-((3-(hydroxymethyl)-1H-pyrazol-1-yl)methyl)benzyl)-3,9,15,21-tetraisobutyl-4,10,12,16,22,24-hexamethyl-1,7,13,19-tetraoxa-4,10,16,22-tetraazacyclotetracosan-2,5,8,11,14,17,20,23-octaone]", "minimal effective concentration": "0.01 to 0.1"}
    ]}
  ]
}
